Results from EP4752152A1, “STEROID COMPOUND, AND PREPARATION METHOD THEREFOR AND USE THEREOF” (Cholesgen (Shanghai) Co.Ltd., priority 2023, dated 2025).
≈ marks a conversion by molar mass, not a printed value. Read-outs that look alike come from different tables or passages of the source.

How the values were obtained:
[1] = system: Fatty Acid Synthase (FASN) gene; experiment: Inhibition of FASN gene expression (qPCR) in Huh-7 cells; type: cell-based, human; details: Homo sapiens, Huh-7, 16 h, Huh-7 cells, starvation medium, 16 hours, qPCR, read-out: FASN IC50
Summary of the method: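 Huh-7 cells switched to starvation DMEM (5% LPDS, 2 µM lovastatin, 10 µM mevalonate) and treated 16 h with compound, top 3000 nM, 3-fold dilutions, 5 concentrations. FASN mRNA by RT-qPCR; inhibition relative to DMSO, IC50 from four-parameter fit.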

[2] = system: SREBP pathway; experiment: SREBP luciferase reporter gene system (SRE-luciferase assay); type: cell-based, human; details: Homo sapiens, Huh-7, 16 h, Huh-7/SRE-luc cells, sterol-deficient medium, 0.01-10 µM
Summary of the method: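 Huh-7 cells stably carrying LDLR promoter-luciferase plus GFP were treated 16 h in sterol-deficient medium (5% lipoprotein-deficient serum, 2 µM lovastatin, 10 µM mevalonic acid) at 0.01–10 µM. Luciferase/GFP ratio measured as pathway activity; inhibition versus DMSO fitted to a four-parameter model for IC50.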

[3] = Metabolic stability experiment of mouse liver microsomes; type: in vitro ADME
Protocol: PB solution (100 mM), MgCl2 solution (300 mM), NADPH solution (2.04 mM), and mouse liver microsome (SHQY catalog number: M1000, batch number: 2110330) solution (1.00 mg/mL) were prepared respectively. […] Then, 100 µL of mouse liver microsome solution was added to a 96-well sample plate. For the 0 min sample, acetonitrile solution containing the internal standard was first added; then, 2 µL of 100 µM working solution was added; followed by the addition of 98 µL of pre-warmed 2.04 mM NADPH at 37°C. For the 5 min, 15 min, 30 min, 45 min, and 60 min samples, 2 µL of 100 µM working solution was first added; followed by the addition of 98 µL of pre-warmed 2.04 mM NADPH at 37°C to initiate the reaction; upon reaching the respective time points, a solution of acetonitrile containing the internal standard was added to terminate the reaction. For the NCF60 sample, 2 µL of 100 µM working solution was first added; followed by the addition of 98 µL of pre-warmed PB at 37°C to initiate the reaction; upon reaching the respective time points, a solution of acetonitrile containing the internal standard was added to terminate the reaction. During the experiment, all samples were incubated in a 37°C water bath. All samples were shaken on an oscillator at 800 rpm for 10 min, then centrifuged at 3200 g for 20 min. The supernatant was aspirated, diluted with deionized water at the corresponding ratio, and analyzed by LC-MS/MS. The remaining percentage of the compound at each time point was obtained by dividing the peak area ratio of the compound at 5, 15, 30, 45, and 60 min by the peak area ratio at 0 min. The half-life (T1/2) of the compound was then calculated using Excel. Table 2: Mouse liver microsome stability results of compounds from some examples

[4] = Solubility in fasted-state simulated intestinal fluid (FaSSIF); type: physicochemical; details: FaSSIF, pH 6.5, fassif, kinetic from dmso stock, FaSSIF pH 6.5, 300 µM sample solution, room temperature
Summary of the method: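 Compound from 10.0 mM DMSO stock added to FaSSIF (phosphate/NaCl buffer, pH 6.5) at 300 µM nominal, shaken 1 h at room temperature, 1000 rpm. After centrifugation, supernatant concentration quantified by LC-MS/MS.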

Row | Structure (SMILES) | IC50 ([1]; numeric value) | IC50 [2] | half-life at 1 µM [3] | solubility at 1 h [4] | IC50 ([1]; class symbols)
1 | C[C@H](CCCC(C)(C)O)[C@H]1CC[C@@]2(C)C3=C(CC[C@]12C)[C@@]1(C)CC[C@H](O)C(C)(C)[C@@H]1CC3 [Comparative compound 1, reference compound] | 959 nM | 0.293 µM | 0.131 h | 105 µM (≈ 46.7 µg/mL) | –
2 | C[C@H](CCCC(O)c1ccccc1OC(F)(F)F)[C@H]1CC[C@H]2[C@H]3[C@H](CC[C@]12C)[C@@]1(C)CC[C@H](O)[C@H](O)[C@@H]1CC3(F)F (stereo partly drawn) [Compound 1, (1R,3aS,3bS,5aR,6R,7S,9aR,9bS,11aR)-4,4-difluoro-1-[(2R)-6-hydroxy-6-{2-[(trifluoromethyl)oxy]phenyl}hexan-2-yl]-9a,11a-dimethylhexadecahydro-1H-cyclopenta[1,2-a]phenanthrene-6,7-diol] | – | 0.33 µM | 2.78 h | 140 µM (≈ 82.4 µg/mL) | –
3 | C[C@H](CCCC(O)c1c(F)cccc1F)[C@H]1CC[C@H]2C3=C(F)C[C@H]4[C@@H](O)[C@@H](O)CC[C@]4(C)[C@H]3CC[C@]12C (stereo partly drawn) [Compound 21, (1R,3aR,5aR,6R,7S,9aR,9bR,11aR)-1-[(2R)-6-(2,6-difluorophenyl)-6-hydroxyhexan-2-yl]-4-fluoro-9a,11a-dimethyl-2,3,3a,5,5a,6,7,8,9,9a,9b,10,11,11a-tetradecahydro-1H-cyclopenta[1,2-a]phenanthrene-6,7-diol] | – | 0.23 µM | 2.69 h | 246 µM (≈ 128 µg/mL) | –
4 | COc1cc(F)ccc1C(O)CCC[C@@H](C)[C@H]1CC[C@H]2[C@H]3[C@H](CC[C@]12C)[C@@]1(C)CC[C@H](O)[C@H](O)[C@@H]1CC3(F)F (stereo partly drawn) [Compound 35, (1R,3aS,3bS,5aR,6R,7S,9aR,9bS,11aR)-4,4-difluoro-1-[(2R)-6-(4-fluoro-2-methoxyphenyl)-6-hydroxyhexan-2-yl]-9a,11a-dimethylhexadecahydro-1H-cyclopenta[1,2-a]phenanthrene-6,7-diol] | – | 0.051 µM | > 3.1 h | 160 µM (≈ 88.4 µg/mL) | 200 to 500 nM
5 | COc1ccccc1C(O)CCC[C@@H](C)[C@H]1CC[C@H]2[C@H]3[C@H](CC[C@]12C)[C@@]1(C)CC[C@H](O)[C@H](O)[C@@H]1CC3(F)F (stereo partly drawn) [Compound 37, (1R,3aS,3bS,5aR,6R,7S,9aR,9bS,11aR)-4,4-difluoro-1-[(2R)-6-hydroxy-6-(2-methoxyphenyl)hexan-2-yl]-9a,11a-dimethylhexadecahydro-1H-cyclopenta[1,2-a]phenanthrene-6,7-diol] | – | 0.03 µM | 2.19 h | 207 µM (≈ 111 µg/mL) | 200 to 500 nM
6 | COc1ccccc1C(O)CCC[C@@H](C)[C@H]1CC[C@H]2C3=C(F)C[C@H]4[C@@H](O)[C@@H](O)CC[C@]4(C)[C@H]3CC[C@]12C (stereo partly drawn) [Compound 38, (1R,3aR,5aR,6R,7S,9aR,9bR,11aR)-4-fluoro-1-[(2R)-6-hydroxy-6-(2-methoxyphenyl)hexan-2-yl]-9a,11a-dimethyl-2,3,3a,5,5a,6,7,8,9,9a,9b,10,11,11a-tetradecahydro-1H-cyclopenta[1,2-a]phenanthrene-6,7-diol] | – | 0.11 µM | 0.203 h | 184 µM (≈ 94.8 µg/mL) | –
7 | COc1cccc(C(O)CCC[C@@H](C)[C@H]2CC[C@H]3[C@H]4[C@H](CC[C@]23C)[C@@]2(C)CC[C@H](O)[C@H](O)[C@@H]2CC4(F)F)c1 (stereo partly drawn) [Compound 39, (1R,3aS,3bS,5aR,6R,7S,9aR,9bS,11aR)-4,4-difluoro-1-[(2R)-6-hydroxy-6-(3-methoxyphenyl)hexan-2-yl]-9a,11a-dimethylhexadecahydro-1H-cyclopenta[1,2-a]phenanthrene-6,7-diol] | – | 0.19 µM | 1.95 h | 177 µM (≈ 94.6 µg/mL) | –
8 | C[C@H](CCCC(O)c1cccc(F)c1)[C@H]1CC[C@H]2[C@H]3[C@H](CC[C@]12C)[C@@]1(C)CC[C@H](O)[C@H](O)[C@@H]1CC3(F)F (stereo partly drawn) [Compound 44, (1R,3aS,3bS,5aR,6R,7S,9aR,9bS,11aR)-4,4-difluoro-1-[(2R)-6-(3-fluorophenyl)-6-hydroxyhexan-2-yl]-9a,11a-dimethylhexadecahydro-1H-cyclopenta[1,2-a]phenanthrene-6,7-diol] | – | 0.152 µM | > 3.1 h | 225 µM (≈ 118 µg/mL) | –
9 | COc1c(F)cccc1C(O)CCC[C@@H](C)[C@H]1CC[C@H]2[C@H]3[C@H](CC[C@]12C)[C@@]1(C)CC[C@H](O)[C@H](O)[C@@H]1CC3(F)F (stereo partly drawn) [Compound 46, (1R,3aS,3bS,5aR,6R,7S,9aR,9bS,11aR)-4,4-difluoro-1-[(2R)-6-(2-methoxy-3-fluorophenyl)-6-hydroxyhexan-2-yl]-9a,11a-dimethylhexadecahydro-1H-cyclopenta[1,2-a]phenanthrene-6,7-diol] | – | 0.07 µM | 2.6 h | 277 µM (≈ 153 µg/mL) | –
10 | COc1ccc(C(O)CCC[C@@H](C)[C@H]2CC[C@H]3[C@H]4[C@H](CC[C@]23C)[C@@]2(C)CC[C@H](O)[C@H](O)[C@@H]2CC4(F)F)cc1 (stereo partly drawn) [Compound 50, (1R,3aS,3bS,5aR,6R,7S,9aR,9bS,11aR)-4,4-difluoro-1-[(2R)-6-(4-methoxyphenyl)-6-hydroxyhexan-2-yl]-9a,11a-dimethylhexadecahydro-1H-cyclopenta[1,2-a]phenanthrene-6,7-diol] | – | 0.188 µM | 1.8 h | 248 µM (≈ 132 µg/mL) | –
11 | COc1cccc([C@H](O)CCC[C@@H](C)[C@H]2CC[C@H]3[C@H]4[C@H](CC[C@]23C)[C@@]2(C)CC[C@H](O)[C@H](O)[C@@H]2CC4(F)F)c1OC [Compound 71, (1R,3aS,3bS,5aR,6R,7S,9aR,9bS,11aR)-1-[(2R,6R)-6-(2,3-dimethoxyphenyl)-6-hydroxyhexan-2-yl]-4,4-difluoro-9a,11a-dimethylhexadecahydro-1H-cyclopenta[1,2-a]phenanthrene-6,7-diol] | – | 0.083 µM | 1.05 h | – | < 200 nM
12 | COc1ccccc1C(O)CCC[C@@H](C)[C@H]1CC[C@H]2[C@H]3[C@H](CC[C@]12C)[C@@]1(C)CC[C@H](O)CC1CC3(F)F (stereo partly drawn) [Compound 72, (1R,3aS,3bR,7S,9aS,9bS,11aR)-4,4-difluoro-1-[(2R)-6-hydroxy-6-(2-methoxyphenyl)hexan-2-yl]-9a,11a-dimethylhexadecahydro-1H-cyclopenta[1,2-a]phenanthren-7-ol] | – | 0.14 µM | 1.38 h | – | < 200 nM
13 | C[C@H](CCCC(O)c1cccc2c1OC(F)(F)O2)[C@H]1CC[C@H]2[C@H]3[C@H](CC[C@]12C)[C@@]1(C)CC[C@H](O)[C@H](O)[C@@H]1CC3(F)F (stereo partly drawn) [Compound 77, (1R,3aS,3bS,5aR,6R,7S,9aR,9bS,11aR)-1-[(2R)-6-(2,2-difluorobenzo[d][1,3]dioxol-4-yl)-6-hydroxyhexan-2-yl]-4,4-difluoro-9a,11a-dimethylhexadecahydro-1H-cyclopenta[1,2-a]phenanthrene-6,7-diol] | – | 0.17 µM | > 3.08 h | – | < 200 nM
14 | C[C@H](CCCC(O)c1cccc(OC(F)(F)F)c1)[C@H]1CC[C@H]2[C@H]3[C@H](CC[C@]12C)[C@@]1(C)CC[C@H](O)[C@H](O)[C@@H]1CC3(F)F (stereo partly drawn) [Compound 84, (1R,3aS,3bS,5aR,6R,7S,9aR,9bS,11aR)-4,4-difluoro-1-[(2R)-6-hydroxy-6-{3-[(trifluoromethyl)oxy]phenyl}hexan-2-yl]-9a,11a-dimethylhexadecahydro-1H-cyclopenta[1,2-a]phenanthrene-6,7-diol] | – | 0.204 µM | > 3.08 h | – | 200 to 500 nM
15 | C[C@H](CCCC(O)c1ccccc1OC(F)(F)F)[C@H]1CC[C@H]2[C@H]3[C@H](CC[C@]12C)[C@@]1(C)CC[C@H](O)C(=O)[C@@H]1CC3(F)F (stereo partly drawn) [Compound 97, (1R,3aS,3bS,5aR,7S,9aR,9bS,11aR)-4,4-difluoro-7-hydroxy-1-[(2R)-6-hydroxy-6-{2-[(trifluoromethyl)oxy]phenyl}hexan-2-yl]-9a,11a-dimethylhexadecahydro-1H-cyclopenta[1,2-a]phenanthren-6-one] | – | 0.0741 µM | 1.78 h | – | < 200 nM
